# Active and inactive are the calls of the source. The rule behind the calls is not given here.
# Assays:
# [1] = target: T1, Protein farnesyltransferase (Homo sapiens, UniProt P49354+P49356); experiment: Inhibition of partially purified human recombinant FTase measured for 15 mins by automated fluorescence based assay; assay type: protein-complex assay
# MOLT-4 = experiment: Growth inhibition of human MOLT4 cells at 10 uM after 48 hrs by sulforhodamine B assay relative to control; assay type: functional; settings: MOLT-4, 48 h, read-out: GI
# [2] = target: T1, Protein farnesyltransferase; experiment: Inhibition of partially purified human recombinant FTase at 100 uM measured for 15 mins by automated fluorescence based assay relative to control; assay type: protein-complex assay
# CCRF-CEM = experiment: Growth inhibition of human CCRF-CEM cells at 10 uM after 48 hrs by sulforhodamine B assay relative to control; assay type: functional; settings: read-out: GI
# HL-60(TB) = experiment: Growth inhibition of human HL-60(TB) cells at 10 uM after 48 hrs by sulforhodamine B assay relative to control; assay type: functional; settings: HL-60, 48 h, read-out: GI
# RPMI-8226 = experiment: Growth inhibition of human RPMI8226 cells at 10 uM after 48 hrs by sulforhodamine B assay relative to control; assay type: functional; settings: RPMI-8226, 48 h, read-out: GI
# SNB-75 = experiment: Growth inhibition of human SNB75 cells at 10 uM after 48 hrs by sulforhodamine B assay relative to control; assay type: functional; settings: SNB-75, 48 h, read-out: GI
# HCT-15 = experiment: Growth inhibition of human HCT15 cells at 10 uM after 48 hrs by sulforhodamine B assay relative to control; assay type: functional; settings: for inhibition of growth at 10 µM: HCT-15, 48 h, read-out: GI
# EKVX = experiment: Growth inhibition of human EKVX cells at 10 uM after 48 hrs by sulforhodamine B assay relative to control; assay type: functional; settings: for inhibition of growth at 10 µM: read-out: GI
# LOX IMVI = experiment: Growth inhibition of human LOXIMVI cells at 10 uM after 48 hrs by sulforhodamine B assay relative to control; assay type: functional; settings: for inhibition of growth at 10 µM: read-out: GI
# SK-MEL-5 = experiment: Growth inhibition of human SK-MEL-5 cells at 10 uM after 48 hrs by sulforhodamine B assay relative to control; assay type: functional; settings: SK-MEL-5, 48 h, read-out: GI
# UACC-62 = experiment: Growth inhibition of human UACC62 cells at 10 uM after 48 hrs by sulforhodamine B assay relative to control; assay type: functional; settings: UACC-62, 48 h, read-out: GI
# OVCAR-8 = experiment: Growth inhibition of human OVCAR8 cells at 10 uM after 48 hrs by sulforhodamine B assay relative to control; assay type: functional; settings: for inhibition of growth at 10 µM: OVCAR-8, 48 h, read-out: GI
# UO-31 = experiment: Growth inhibition of human UO31 cells at 10 uM after 48 hrs by sulforhodamine B assay relative to control; assay type: functional; settings: UO-31, 48 h, read-out: GI
# CAKI-1 = experiment: Growth inhibition of human Caki1 cells at 10 uM after 48 hrs by sulforhodamine B assay relative to control; assay type: functional; settings: CAKI-1, 48 h, read-out: GI
# PC-3 = experiment: Growth inhibition of human PC3 cells at 10 uM after 48 hrs by sulforhodamine B assay relative to control; assay type: functional; settings: PC-3, 48 h, read-out: GI
# MDA-MB-231 = experiment: Growth inhibition of human MDA-MB-231 cells at 10 uM after 48 hrs by sulforhodamine B assay relative to control; assay type: functional; settings: MDA-MB-231, 48 h, read-out: GI
# T47D = experiment: Growth inhibition of human T47D cells at 10 uM after 48 hrs by sulforhodamine B assay relative to control; assay type: functional; settings: read-out: GI
structure (smiles),measurement,setting,value
O=C(CCN1c2ccccc2Sc2ccccc21)OCc1cn(CC(=O)c2ccc(Br)cc2)nn1,IC50,[1],1.3 µM
O=C(CCN1c2ccccc2Sc2ccccc21)NCc1cn(CC(=O)c2ccc(F)cc2)nn1,inhibition of growth at 10 µM,MOLT-4,38%
same,inhibition,[2],52.6%
same,inhibition of growth at 10 µM,CCRF-CEM,20%
same,inhibition of growth at 10 µM,HL-60(TB),20%
same,inhibition of growth at 10 µM,RPMI-8226,3%
same,inhibition of growth at 10 µM,SNB-75,19%
same,growth inhibition (GI),HCT-15,inactive
same,inhibition of growth at 10 µM,EKVX,22%
same,inhibition of growth at 10 µM,LOX IMVI,12%
same,inhibition of growth at 10 µM,SK-MEL-5,14%
same,inhibition of growth at 10 µM,UACC-62,14%
same,growth inhibition (GI),OVCAR-8,inactive
same,inhibition of growth at 10 µM,UO-31,18%
same,inhibition of growth at 10 µM,CAKI-1,17%
same,inhibition of growth at 10 µM,PC-3,26%
same,inhibition of growth at 10 µM,MDA-MB-231,3%
same,inhibition of growth at 10 µM,T47D,7%
O=C(CCN1c2ccccc2Sc2ccccc21)NCc1cn(CC(=O)c2ccc(Br)cc2)nn1,IC50,[1],8.3 µM
same,inhibition of growth at 10 µM,MOLT-4,34%
same,inhibition of growth at 10 µM,CCRF-CEM,18%
same,inhibition of growth at 10 µM,HL-60(TB),41%
same,inhibition of growth at 10 µM,RPMI-8226,15%
same,inhibition of growth at 10 µM,SNB-75,18%
same,inhibition of growth at 10 µM,HCT-15,7%
same,inhibition of growth at 10 µM,EKVX,24%
same,inhibition of growth at 10 µM,LOX IMVI,17%
same,inhibition of growth at 10 µM,SK-MEL-5,24%
same,inhibition of growth at 10 µM,UACC-62,29%
same,growth inhibition (GI),OVCAR-8,inactive
same,inhibition of growth at 10 µM,UO-31,42%
same,inhibition of growth at 10 µM,CAKI-1,37%
same,inhibition of growth at 10 µM,PC-3,42%
same,inhibition of growth at 10 µM,MDA-MB-231,14%
same,inhibition of growth at 10 µM,T47D,29%
O=C(CN1c2ccccc2Sc2ccccc21)NCc1cn(CC(=O)c2ccc(Br)cc2)nn1,IC50,[1],24.3 µM
same,inhibition of growth at 10 µM,MOLT-4,42%
same,inhibition of growth at 10 µM,CCRF-CEM,17%
same,inhibition of growth at 10 µM,HL-60(TB),13%
same,inhibition of growth at 10 µM,RPMI-8226,22%
same,inhibition of growth at 10 µM,SNB-75,18%
same,inhibition of growth at 10 µM,HCT-15,16%
same,growth inhibition (GI),EKVX,inactive
same,growth inhibition (GI),LOX IMVI,inactive
same,inhibition of growth at 10 µM,SK-MEL-5,5%
same,inhibition of growth at 10 µM,UACC-62,25%
same,inhibition of growth at 10 µM,OVCAR-8,6%
same,inhibition of growth at 10 µM,UO-31,13%
same,inhibition of growth at 10 µM,CAKI-1,13%
same,inhibition of growth at 10 µM,MDA-MB-231,9%
same,inhibition of growth at 10 µM,T47D,12%
O=C(CN1c2ccccc2Sc2ccccc21)NCc1cn(CC(=O)N2c3ccccc3Sc3ccc(Cl)cc32)nn1,inhibition,[2],0%
O=C(CN1c2ccccc2Sc2ccccc21)OCc1cn(CC(=O)c2ccc(F)cc2)nn1,inhibition,[2],31.9%
COc1ccc(C(=O)Cn2cc(CNC(=O)CN3c4ccccc4Sc4ccccc43)nn2)cc1,inhibition,[2],24.4%
O=C(CCN1c2ccccc2Sc2ccccc21)OCc1cn(CC(=O)c2ccc(Cl)cc2)nn1,IC50,[1],1.5 µM
O=C(CCN1c2ccccc2Sc2ccccc21)OCc1cn(CC(=O)c2ccc(F)cc2)nn1,inhibition,[2],35.2%
O=C(CN1c2ccccc2Sc2ccccc21)OCc1cn(CC(=O)c2ccc(Br)cc2)nn1,inhibition,[2],35.5%
COc1ccc(C(=O)Cn2cc(CNC(=O)CCN3c4ccccc4Sc4ccccc43)nn2)cc1,inhibition,[2],29.3%
COc1ccc(C(=O)Cn2cc(COC(=O)CCN3c4ccccc4Sc4ccccc43)nn2)cc1,inhibition,[2],22.3%
O=C(CN1c2ccccc2Sc2ccccc21)NCc1cn(CC(=O)c2ccc(F)cc2)nn1,inhibition,[2],0%
Cc1ccc(C(=O)Cn2cc(COC(=O)CCN3c4ccccc4Sc4ccccc43)nn2)cc1,inhibition,[2],10.7%
O=C(CCN1c2ccccc2Sc2ccccc21)NCc1cn(CC(=O)N2c3ccccc3Sc3ccccc32)nn1,inhibition,[2],0%
Cc1ccc(C(=O)Cn2cc(CNC(=O)CN3c4ccccc4Sc4ccccc43)nn2)cc1,inhibition,[2],19%
N#Cc1ccc(C(=O)Cn2cc(COC(=O)CN3c4ccccc4Sc4ccccc43)nn2)cc1,inhibition,[2],20.7%
O=C(CN1c2ccccc2Sc2ccccc21)NCc1cn(CC(=O)N2c3ccccc3Sc3ccccc32)nn1,inhibition,[2],0%
N#Cc1ccc(C(=O)Cn2cc(CNC(=O)CCN3c4ccccc4Sc4ccccc43)nn2)cc1,IC50,[1],5.2 µM
N#Cc1ccc(C(=O)Cn2cc(CNC(=O)CN3c4ccccc4Sc4ccccc43)nn2)cc1,inhibition,[2],24.9%
O=C(CN1c2ccccc2Sc2ccccc21)NCc1cn(CC(=O)c2ccc(Cl)cc2)nn1,inhibition,[2],40%
O=C(CCN1c2ccccc2Sc2ccccc21)NCc1cn(CC(=O)c2ccc(Cl)cc2)nn1,IC50,[1],7.7 µM
same,inhibition of growth at 10 µM,MOLT-4,40%
same,inhibition of growth at 10 µM,CCRF-CEM,19%
same,inhibition of growth at 10 µM,HL-60(TB),68%
same,inhibition of growth at 10 µM,RPMI-8226,19%
same,inhibition of growth at 10 µM,SNB-75,20%
same,inhibition of growth at 10 µM,HCT-15,8%
same,inhibition of growth at 10 µM,EKVX,30%
same,inhibition of growth at 10 µM,LOX IMVI,9%
same,inhibition of growth at 10 µM,SK-MEL-5,13%
same,inhibition of growth at 10 µM,UACC-62,26%
same,inhibition of growth at 10 µM,OVCAR-8,17%
same,inhibition of growth at 10 µM,UO-31,36%
same,inhibition of growth at 10 µM,CAKI-1,32%
same,inhibition of growth at 10 µM,PC-3,38%
same,inhibition of growth at 10 µM,MDA-MB-231,4%
same,inhibition of growth at 10 µM,T47D,22%
Cc1ccc(C(=O)Cn2cc(CNC(=O)CCN3c4ccccc4Sc4ccccc43)nn2)cc1,inhibition,[2],44.2%
N#Cc1ccc(C(=O)Cn2cc(COC(=O)CCN3c4ccccc4Sc4ccccc43)nn2)cc1,inhibition,[2],55.1%
